The target of one experiment is CDK12 (Homo sapiens, UniProt Q9NYV4). Briefly: Western blot degradation of CDK12 (Example 2). The format is cell-based. Also on record: degradation of CDK12/13 protein in leukemia cells KASUMI-1, MV4-11, and Jurkat; endogenous in cells. The settings on record: DC50 classes, cell line not given; for DC50: read-out: CDK12 degradation Activity. The method, then: (§1) Western blot was used to determine the degradation of CDK12/13 protein in leukemia cells KASUMI-1, MV4-11, and Jurkat. The two compounds with the best degradation effects were further validated for their ability to degrade CDK12/13 protein in breast cancer cells MDA-MB-231 using a concentration gradient.
(§2) • Cell lines: KASUMI-1, MV4-11, Jurkat, or MDA-MB-231 • Culture medium: DMEM/RIPM-1640+10% Hyclone serum • Compound dissolution method: Compounds were dissolved in DMSO to prepare a 50 mM stock solution, and then diluted to the corresponding concentrations.
(§3) (1) In vitro cell culture: The selected cells were cultured in a 37 °C constant temperature incubator with 5% CO2. Once the cell density reached 70-90%, they were passaged for subsequent experiments.
(§4) (2) Cell seeding: Cells were digested, and the cell suspension was transferred to a 1.5 mL Eppendorf tube. After centrifugation at 1,000 rpm for 5 min, the cells were resuspended in 2 mL of culture medium and counted. The cell suspension was seeded in a 24-well plate at a density of 200,000 cells per well and allowed to adhere for 8-12 h.
(§5) (3) Compound treatment: The 50 mM compound stock solution was diluted with cell culture medium to a final concentration of 0.01 μM-3 μM. Cells were incubated in a 37 °C incubator with 5% CO2 for 3 h-48 h. The DMSO group served as the negative control.
(§6) At the end of the treatment time, the cells were collected and washed once with PBS. An appropriate volume of 4% SDS was added to lyse the cells, and the mixture was sonicated until no longer viscous. After centrifugation at 12,000 rpm at room temperature for 30 min, the supernatant was transferred to a new EP tube for protein quantification.
(§7) The exposure results were quantitatively analyzed using Image J software. First, the grayscale values of the bands were calculated using Image J. Then, the grayscale value of the target protein was divided by the grayscale value of the internal reference protein for normalization. The calculation formula is: […]
(§8) Where A is the grayscale value and D is the degradation rate.
(§9) In the figures, CDK12 and CDK13 are the target proteins under study, and β-Actin and GAPDH are the internal reference proteins. Internal reference proteins are used to indicate the total protein amount in each experimental group for quantitative analysis.
In general terms: In western blotting, separated proteins are transferred to a membrane and probed.

For the next experiment, the target named is CDK13 (Homo sapiens, UniProt Q14004). The experiment in a line: Western blot degradation of CDK13 (Example 2). The class given is cell-based. Set-up: degradation of CDK12/13 protein in leukemia cells KASUMI-1, MV4-11, and Jurkat; endogenous in cells. The conditions noted are these: DC50 classes, cell line not given; for DC50: read-out: CDK13 degradation Activity. On the procedure: as §1, §2, §3, §4, §5, §6, §7, §8, §9
Sequence of CDK13 (Q14004 whole entry): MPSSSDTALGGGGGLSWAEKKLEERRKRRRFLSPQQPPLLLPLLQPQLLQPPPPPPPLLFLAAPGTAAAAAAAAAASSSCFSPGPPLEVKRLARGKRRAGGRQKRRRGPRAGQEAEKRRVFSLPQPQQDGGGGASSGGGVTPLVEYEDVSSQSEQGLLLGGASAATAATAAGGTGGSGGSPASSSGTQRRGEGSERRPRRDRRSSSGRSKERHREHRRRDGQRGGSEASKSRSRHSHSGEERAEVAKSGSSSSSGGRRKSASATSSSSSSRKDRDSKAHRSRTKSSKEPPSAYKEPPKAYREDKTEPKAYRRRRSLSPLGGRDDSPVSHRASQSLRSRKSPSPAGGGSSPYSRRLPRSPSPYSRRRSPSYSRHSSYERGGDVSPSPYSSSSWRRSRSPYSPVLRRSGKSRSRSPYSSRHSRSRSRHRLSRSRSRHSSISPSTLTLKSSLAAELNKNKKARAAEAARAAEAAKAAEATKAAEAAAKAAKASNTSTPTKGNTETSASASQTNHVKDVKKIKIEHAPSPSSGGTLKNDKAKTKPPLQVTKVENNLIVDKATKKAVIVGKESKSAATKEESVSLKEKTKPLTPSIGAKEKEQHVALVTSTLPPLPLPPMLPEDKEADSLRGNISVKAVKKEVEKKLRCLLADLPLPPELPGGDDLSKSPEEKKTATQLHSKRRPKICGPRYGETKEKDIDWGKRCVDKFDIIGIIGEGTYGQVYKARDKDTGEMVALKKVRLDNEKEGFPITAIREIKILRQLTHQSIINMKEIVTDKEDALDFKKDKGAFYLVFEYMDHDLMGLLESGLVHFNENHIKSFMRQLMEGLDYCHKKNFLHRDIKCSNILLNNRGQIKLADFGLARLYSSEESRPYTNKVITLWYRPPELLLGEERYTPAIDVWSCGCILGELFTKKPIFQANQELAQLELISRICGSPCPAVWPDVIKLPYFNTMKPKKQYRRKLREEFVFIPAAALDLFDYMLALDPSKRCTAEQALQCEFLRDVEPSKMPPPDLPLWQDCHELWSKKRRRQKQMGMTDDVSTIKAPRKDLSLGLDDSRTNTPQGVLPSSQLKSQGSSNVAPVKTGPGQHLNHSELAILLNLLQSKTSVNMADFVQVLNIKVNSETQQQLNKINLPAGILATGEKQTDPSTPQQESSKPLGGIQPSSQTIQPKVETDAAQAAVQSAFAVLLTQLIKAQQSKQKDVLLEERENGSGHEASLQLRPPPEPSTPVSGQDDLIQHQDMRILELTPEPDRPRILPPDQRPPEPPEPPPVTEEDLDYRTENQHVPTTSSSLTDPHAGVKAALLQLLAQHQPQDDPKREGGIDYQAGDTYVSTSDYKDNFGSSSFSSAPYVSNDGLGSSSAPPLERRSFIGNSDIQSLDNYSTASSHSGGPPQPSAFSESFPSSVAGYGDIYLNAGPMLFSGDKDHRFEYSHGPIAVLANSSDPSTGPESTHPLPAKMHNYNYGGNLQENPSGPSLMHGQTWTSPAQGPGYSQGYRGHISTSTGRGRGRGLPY
Sequence of CDK13 (O75909 whole entry partner): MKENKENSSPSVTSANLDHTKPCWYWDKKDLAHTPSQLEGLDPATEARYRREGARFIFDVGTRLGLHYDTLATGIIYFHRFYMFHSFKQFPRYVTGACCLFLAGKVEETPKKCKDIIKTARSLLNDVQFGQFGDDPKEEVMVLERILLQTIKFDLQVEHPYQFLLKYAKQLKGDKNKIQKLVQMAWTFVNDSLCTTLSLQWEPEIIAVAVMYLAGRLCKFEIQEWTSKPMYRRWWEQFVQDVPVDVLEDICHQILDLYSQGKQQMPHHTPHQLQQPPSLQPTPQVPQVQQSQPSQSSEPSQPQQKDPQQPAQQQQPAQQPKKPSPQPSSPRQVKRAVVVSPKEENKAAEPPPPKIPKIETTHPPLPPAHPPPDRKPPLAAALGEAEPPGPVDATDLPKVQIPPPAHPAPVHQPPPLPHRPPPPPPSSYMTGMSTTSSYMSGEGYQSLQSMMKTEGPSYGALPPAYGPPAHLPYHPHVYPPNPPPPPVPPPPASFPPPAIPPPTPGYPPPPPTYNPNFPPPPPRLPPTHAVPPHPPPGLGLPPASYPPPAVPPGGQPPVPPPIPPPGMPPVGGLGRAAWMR

Sequence of CDK12 (Q9NYV4 whole entry): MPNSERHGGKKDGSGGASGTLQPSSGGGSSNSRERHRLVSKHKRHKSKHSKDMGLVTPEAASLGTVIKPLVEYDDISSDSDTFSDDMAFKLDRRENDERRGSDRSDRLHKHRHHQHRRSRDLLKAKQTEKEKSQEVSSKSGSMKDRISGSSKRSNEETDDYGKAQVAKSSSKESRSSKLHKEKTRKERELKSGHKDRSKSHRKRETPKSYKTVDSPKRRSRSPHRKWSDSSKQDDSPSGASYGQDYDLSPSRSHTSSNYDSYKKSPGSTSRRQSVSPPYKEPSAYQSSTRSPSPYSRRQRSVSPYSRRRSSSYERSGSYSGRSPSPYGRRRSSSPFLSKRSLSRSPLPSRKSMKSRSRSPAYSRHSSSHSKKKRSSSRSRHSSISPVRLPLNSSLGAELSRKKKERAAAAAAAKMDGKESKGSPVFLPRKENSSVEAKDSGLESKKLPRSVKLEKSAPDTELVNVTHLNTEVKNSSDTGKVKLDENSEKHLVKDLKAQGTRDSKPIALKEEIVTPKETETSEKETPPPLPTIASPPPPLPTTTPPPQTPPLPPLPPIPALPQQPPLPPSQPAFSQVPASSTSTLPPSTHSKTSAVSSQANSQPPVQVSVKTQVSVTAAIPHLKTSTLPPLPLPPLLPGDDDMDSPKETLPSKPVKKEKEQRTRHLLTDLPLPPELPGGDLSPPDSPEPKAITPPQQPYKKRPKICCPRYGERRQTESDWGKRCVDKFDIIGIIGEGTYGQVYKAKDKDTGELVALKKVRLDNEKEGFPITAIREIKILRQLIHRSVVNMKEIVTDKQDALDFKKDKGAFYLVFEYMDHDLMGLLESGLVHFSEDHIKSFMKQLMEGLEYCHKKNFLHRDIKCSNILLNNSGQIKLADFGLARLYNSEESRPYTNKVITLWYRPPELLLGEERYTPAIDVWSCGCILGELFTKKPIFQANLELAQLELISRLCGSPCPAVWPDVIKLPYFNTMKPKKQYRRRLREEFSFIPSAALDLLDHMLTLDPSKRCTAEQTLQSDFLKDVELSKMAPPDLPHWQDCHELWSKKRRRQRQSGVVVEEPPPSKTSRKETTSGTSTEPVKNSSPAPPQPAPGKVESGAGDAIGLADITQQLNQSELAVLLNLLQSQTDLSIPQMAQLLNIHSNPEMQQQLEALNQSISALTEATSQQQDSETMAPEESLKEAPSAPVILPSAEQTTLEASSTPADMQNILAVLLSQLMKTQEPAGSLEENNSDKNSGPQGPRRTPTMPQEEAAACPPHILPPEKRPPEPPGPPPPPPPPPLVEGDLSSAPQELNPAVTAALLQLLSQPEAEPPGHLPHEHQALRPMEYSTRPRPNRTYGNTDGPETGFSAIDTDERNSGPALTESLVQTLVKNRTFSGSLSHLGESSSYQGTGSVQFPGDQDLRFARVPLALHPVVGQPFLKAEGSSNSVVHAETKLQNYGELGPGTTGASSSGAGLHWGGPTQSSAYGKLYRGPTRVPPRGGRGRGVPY
Sequence of CDK12 (O75909 whole entry partner): as the sequence (O75909 whole entry partner) above

`Cc1ncsc1-c1ccc([C@H](C)NC(=O)[C@@H]2C[C@@H](O)CN2C(=O)[C@@H](NC(=O)COCCn2cc(-c3ccc(N(C(=O)NCc4ccccc4)[C@H]4CC[C@H](Nc5ccc(C#N)cn5)CC4)cc3)ccc2=O)C(C)(C)C)cc1` [Formula 56]: on CDK12, the “CDK12 degradation Activity” value is on record as “−”. Besides, the “CDK13 degradation Activity” value on CDK13 is recorded as “−”.

With `N#Cc1ccc(N[C@H]2CC[C@H](N(C(=O)NCc3ccccc3)c3ccc(N4CCN(CCNc5cccc6c5C(=O)N(C5CCC(=O)NC5=O)C6=O)CC4)cc3)CC2)nc1` (some centres unmarked) [Formula 42], the DC50 on CDK12 and at CDK13 was 1000 to 3000 nM each time.

On to `Cc1ncsc1-c1ccc([C@H](C)NC(=O)[C@@H]2C[C@@H](O)CN2C(=O)[C@@H](NC(=O)CN2CCN(c3ncc(-c4ccc(N(C(=O)NCc5ccccc5)[C@H]5CC[C@H](Nc6ccc(C#N)cn6)CC5)cc4)cn3)CC2)C(C)(C)C)cc1` [Formula 79], for which the DC50 at CDK12 and at CDK13 was < 100 nM in each case.

Take `Cc1ncsc1-c1ccc([C@H](C)NC(=O)[C@@H]2C[C@@H](O)CN2C(=O)[C@@H](NC(=O)COCCOc2ccc(-c3ccc4c(c3)CN(Cc3ccccc3)C(=O)N4[C@H]3CC[C@H](Nc4ccc(C#N)cn4)CC3)cn2)C(C)(C)C)cc1` [Formula 62]: the DC50 on CDK12 and at CDK13 was 500 to 1000 nM each time.

Regarding `N#Cc1ccc(N[C@H]2CC[C@H](N(C(=O)NCc3ccccc3)c3ccc(N4CCN(CCOCCOCCOCCNc5cccc6c5C(=O)N(C5CCC(=O)NC5=O)C6=O)CC4)cc3)CC2)nc1` (some centres unmarked) [Formula 40], the DC50 on CDK12 was 500 to 1000 nM; on CDK13, 1000 to 3000 nM.

Take `Cc1ncsc1-c1ccc([C@H](C)NC(=O)[C@@H]2C[C@@H](O)CN2C(=O)[C@@H](NC(=O)N2CC3(CCN(c4ccc(N(C(=O)NCc5ccccc5)[C@H]5CC[C@H](Nc6ncc(C#N)cn6)CC5)cc4)CC3)C2)C(C)(C)C)cc1` [Formula 54]: at CDK12, the “CDK12 degradation Activity” value is on record as “−”. Also, the “CDK13 degradation Activity” value at CDK13 is “−”.

`Cc1ncsc1-c1ccc([C@H](C)NC(=O)[C@@H]2C[C@@H](O)CN2C(=O)[C@@H](NC(=O)CN2CCN(c3ccc(N(C(=O)NCc4ccccc4)[C@H]4CC[C@H](Nc5ccc(C#N)cn5)CC4)cc3)CC2)C(C)(C)C)cc1` [Formula 10]: the DC50 on CDK12 and on CDK13 was 1000 to 3000 nM each time.

Turning to `Cc1ncsc1-c1ccc([C@H](C)NC(=O)[C@@H]2C[C@@H](O)CN2C(=O)[C@@H](NC(=O)C2CCN(C(=O)C3CCN(c4ccc(-c5ccc(N(C(=O)NCc6ccccc6)[C@H]6CC[C@H](Nc7ccc(C#N)cn7)CC6)cc5)cn4)CC3)CC2)C(C)(C)C)cc1` [Formula 21], the DC50 on CDK12 and at CDK13 was 1000 to 3000 nM each time.

As to `N#Cc1ccc(N[C@H]2CC[C@H](N(C(=O)NCc3ccccc3)c3ccc(-c4ccc(OCCNc5cccc6c5C(=O)N(C5CCC(=O)NC5=O)C6=O)nc4)cc3)CC2)nc1` (some centres unmarked) [Formula 37], the DC50 at CDK12 lay within 1000 to 3000 nM; at CDK13, 500 to 1000 nM.

In the case of `Cc1ncsc1-c1ccc([C@H](C)NC(=O)[C@@H]2C[C@@H](O)CN2C(=O)[C@@H](NC(=O)CN2CCC(Oc3ccc(-c4ccc(N(C(=O)NCc5ccccc5)[C@H]5CC[C@H](Nc6ccc(C#N)cn6)CC5)cc4)cn3)CC2)C(C)(C)C)cc1` [Formula 11], the DC50 was in the range of 500 to 1000 nM on CDK12 and 100 to 500 nM on CDK13.

On to `Cc1ncsc1-c1ccc([C@H](C)NC(=O)[C@@H]2C[C@@H](O)CN2C(=O)[C@@H](NC(=O)COCCOCCOCCn2cc(-c3ccc(N(C(=O)NCc4ccccc4)[C@H]4CC[C@H](Nc5ccc(C#N)cn5)CC4)cc3)ccc2=O)C(C)(C)C)cc1` [Formula 58], for which, on CDK12, the “CDK12 degradation Activity” value was “−”. Besides, at CDK13, the “CDK13 degradation Activity” value is recorded as “−”.

On to `Cc1ncsc1-c1ccc([C@H](C)NC(=O)[C@@H]2C[C@@H](O)CN2C(=O)[C@@H](NC(=O)CN2CCN(c3ncc(-c4ccc(N(C(=O)NCc5ccccc5)[C@H]5CC[C@H](Nc6ccc(C#N)cn6)CC5)cc4)cn3)CC2)C(C)(C)C)cc1` [Formula 86], for which the DC50 at CDK12 and at CDK13 was < 100 nM in each case.

Consider `Cc1ncsc1-c1ccc([C@H](C)NC(=O)[C@@H]2C[C@@H](O)CN2C(=O)[C@@H](NC(=O)COCCOCCn2cc(-c3ccc(N(C(=O)NCc4ccccc4)[C@H]4CC[C@H](Nc5ccc(C#N)cn5)CC4)cc3)ccc2=O)C(C)(C)C)cc1` [Formula 57], for which the “CDK12 degradation Activity” value on CDK12 is on record as “−”. Moreover, the “CDK13 degradation Activity” value at CDK13 is listed as “−”.

As for `N#Cc1ccc(N[C@H]2CC[C@H](N(C(=O)NCc3ccccc3)c3ccc(-c4ccc(OCCOCCOCCOCCOCCNc5cccc6c5C(=O)N(C5CCC(=O)NC5=O)C6=O)nc4)cc3)CC2)nc1` (some centres unmarked) [Formula 35], the values for the DC50 on CDK12 and on CDK13 were 1000 to 3000 nM and 3000 to 10000 nM, respectively.

For the molecule `Cc1ncsc1-c1ccc([C@H](C)NC(=O)[C@@H]2C[C@@H](O)CN2C(=O)[C@@H](NC(=O)CN2CCN(c3ncc(-c4ccc(N(C(=O)NCc5ccccc5)[C@H]5CC[C@H](Nc6ccc(C#N)cn6)CC5)cc4)cn3)CC2)C(C)(C)C)cc1` [Formula 84], the DC50 at CDK12 and on CDK13 was < 100 nM in each case.

Turning to `Cc1ncsc1-c1ccc([C@H](C)NC(=O)[C@@H]2C[C@@H](O)CN2C(=O)[C@@H](NC(=O)CC#CC2CN(c3ccc(-c4ccc(N(C(=O)NCc5ccccc5)[C@H]5CC[C@H](Nc6ccc(C#N)cn6)CC5)cc4)cn3)C2)C(C)(C)C)cc1` [Formula 23], the DC50 at CDK12 is 3000 to 10000 nM. Besides, the “CDK13 degradation Activity” value at CDK13 is on record as “−”.

In the case of `Cc1ncsc1-c1ccc([C@H](C)NC(=O)[C@@H]2C[C@@H](O)CN2C(=O)[C@@H](NC(=O)CN2CCN(c3ncc(-c4ccc(N(C(=O)NCc5ccccc5)[C@H]5CC[C@H](Nc6ccc(C#N)cn6)CC5)cc4)cn3)CC2)C(C)(C)C)cc1` [Formula 82], the DC50 at CDK12 and at CDK13 was < 100 nM in each case.

Regarding `N#Cc1ccc(N[C@H]2CC[C@H](N(C(=O)NCc3ccccc3)c3ccc(N4CCN(CCOCCOCCNc5cccc6c5C(=O)N(C5CCC(=O)NC5=O)C6=O)CC4)cc3)CC2)nc1` (some centres unmarked) [Formula 39], the DC50 on CDK12 was in the range of 1000 to 3000 nM; at CDK13, 3000 to 10000 nM.

As to `Cc1ncsc1-c1ccc([C@H](C)NC(=O)[C@@H]2C[C@@H](O)CN2C(=O)[C@@H](NC(=O)COCCOCCN2CCN(c3ccc(N(C(=O)NCc4ccccc4)[C@H]4CC[C@H](Nc5ccc(C#N)cn5)CC4)cc3)CC2)C(C)(C)C)cc1` [Formula 8], the DC50 on CDK12 and at CDK13 was 500 to 1000 nM in each case.

`N#Cc1ccc(N[C@H]2CC[C@H](N(C(=O)NCc3ccccc3)c3ccc(-c4ccc(=O)n(CCOCCOCCOCCOCCOCCNc5cccc6c5C(=O)N(C5CCC(=O)NC5=O)C6=O)c4)cc3)CC2)nc1` (some centres unmarked) [Formula 50]: the DC50 on CDK12 and at CDK13 was 3000 to 10000 nM each time.

`N#Cc1ccc(N[C@H]2CC[C@H](N(C(=O)NCc3ccccc3)c3ccc(-c4ccc(OCCOCCOCCOCCOCCOCCNc5cccc6c5C(=O)N(C5CCC(=O)NC5=O)C6=O)nc4)cc3)CC2)nc1` (some centres unmarked) [Formula 36]: on CDK12, the “CDK12 degradation Activity” value is listed as “−”. In addition, at CDK13, the “CDK13 degradation Activity” value was “−”.

`Cc1ncsc1-c1ccc([C@H](C)NC(=O)[C@@H]2C[C@@H](O)CN2C(=O)[C@@H](NC(=O)CN2CCC(C#Cc3ccc(N(C(=O)NCc4ccccc4)[C@H]4CC[C@H](Nc5ccc(C#N)cn5)CC4)cc3)CC2)C(C)(C)C)cc1` [Formula 25]: the DC50 at CDK12 and at CDK13 was 3000 to 10000 nM throughout.

As for `Cc1ncsc1-c1ccc([C@H](C)NC(=O)[C@@H]2C[C@@H](O)CN2C(=O)[C@@H](NC(=O)COCCOCCOCCOCCn2cc(-c3ccc(N(C(=O)NCc4ccccc4)[C@H]4CC[C@H](Nc5ccc(C#N)cn5)CC4)cc3)ccc2=O)C(C)(C)C)cc1` [Formula 59], the DC50 on CDK12 and at CDK13 was 1000 to 3000 nM in each case.

Turning to `N#Cc1ccc(N[C@H]2CC[C@H](N(C(=O)NCc3ccccc3)c3ccc(-c4ccc(=O)n(CCOCCOCCOCCOCCNc5cccc6c5C(=O)N(C5CCC(=O)NC5=O)C6=O)c4)cc3)CC2)nc1` (some centres unmarked) [Formula 49], the DC50 at CDK12 lay in the range of 500 to 1000 nM; on CDK13, 1000 to 3000 nM.

Turning to `Cc1ncsc1-c1ccc([C@H](C)NC(=O)[C@@H]2C[C@@H](O)CN2C(=O)[C@@H](NC(=O)COCCOc2ccc(-c3ccc(N(C(=O)NCc4ccccc4)[C@H]4CC[C@H](Nc5ccc(C#N)cn5)CC4)cc3)cn2)C(C)(C)C)cc1` [Formula 1], the DC50 on CDK12 and on CDK13 was 100 to 500 nM each time.

Source of the values: patent US20260327204A1, “DEGRADERS OF CYCLIN-DEPENDENT KINASE 12/13, COMPOSITIONS, AND USES THEREOF” (ZHEJIANG UNIVERSITY, priority 2023, published 2026).
